Patent US8809368B2, “Compounds affecting gap junction activity” (Kansas State University Research Foundation, priority 2006, dated 2014)

Key:
SW620 colon cancer cells = assay: Colony growth of SW620 colon cancer cells; format: cell-based
Experimental: However, PQ3 has an opposite effect on mammary cancer cell lines. […] A summary of PQ-mediated GJIC activity and colony growth in breast and colon cancer cells is presented in Tables 1, 2, and 3, as well as FIGS. 10-13. In FIG. 10, SW620 cells were dosed for 24 hours with PQ1 at 100, 200, 300, and 500 nM. The gap junction activity was measured as a percent of control, as previously described. It was seen that all concentrations on PQ1 increased the gap junction activity in SW620 colon cancer cells as compared to the control. In FIG. 11, the effect of PQ1 on the expression of PKCγ was studied at concentrations of 100, 200, 300 and 500 nM PQ1 for 24 hours. It is seen in FIG. 11 that PQ1 has no effect on the expression of PKCγ at the levels tested. In FIGS. 12 and 13, the effect of PQ1 on the colony growth of SW620 colon cancer cells was measured with 1-100 nM PQ1 (FIG. 12) and 10 uM PQ1 (FIG. 13).
Colony Growth Assay: T47D human breast cancer cells were treated with PQ1. Base agar plates were prepared containing 0.8% agar and 0.4% agar in Ham's F12. Cells (5×10^4 cells/33 mm2 well) were suspended in 100 μl of Ham's F12 with 0.4% agar and plated. These plates were maintained at 37° C. for 7 days and examined for the presence of colonies. Individual colonies of 40 um or greater were examined.

Solubility in water = format: physicochemical; conditions: succinic acid salt

SMILES: COc1cc(NCCCN)c2nccc(C)c2c1Oc1cccc(C(F)(F)F)c1.O=C(O)CCC(=O)O [PQ1, 6-Methoxy-8-[(3-aminopropyl)amino]-4-methyl-5-(3-trifluoromethylphenyloxy) quinoline succinic acid]
- colony growth (SW620 colon cancer cells; 10 uM): completely inhibits
- colony growth (SW620 colon cancer cells; 1-100 nM): no effect
- solubility in water (Solubility in water): soluble in water
